Patent publication EP4603105A1, “PHARMACEUTICAL COMPOSITION CONTAINING CYCLIC COMPOUND HAVING SELECTIVE KRAS INHIBITORY EFFECT AGAINST HRAS AND NRAS” (CHUGAI SEIYAKU KABUSHIKI KAISHA, priority 2022, dated 2024)
*1 amine or outer side, *2 acyl side, *3 side chain or, on linkers, in order; H or OH if unused. Where a SMILES comes first, the peptide text is derived from it. Bridges are numbered along the chain shown (N, C = ends). [ ]: non-standard residue; d: D form. The star is where a group is joined. hPhe(3-Cl-4-CF3) = N[C@@H](CCc1ccc(C(F)(F)F)c(Cl)c1)C(=O)O; NPrPhe(4-CF3) = CCCN[C@@H](Cc1ccc(C(F)(F)F)cc1)C(=O)O; Pro(4-spirocPr) = O=C(O)[C@@H]1CC2(CC2)CN1; NMeGly(cPent) = CN[C@H](C(=O)O)C1CCCC1; X9 = CC1(C)CN([*:1])[C@@H]1C(=O)[*:2]; NMeD = CN[C@@H](CC(=O)O)C(=O)O; NMeL = CN[C@@H](CC(C)C)C(=O)O; Morpholide = C1CN(*)CCO1; Ac5c = NC1(C(=O)O)CCCC1; Aze = O=C(O)[C@@H]1CCN1; Sar = CNCC(=O)O

Legend:
[1] = target: GDP-bound NRAS wild-type protein (Homo sapiens, UniProt P01111); test: Binding to NRAS by surface plasmon resonance (SPR), KD and KD ratio to KRAS
Chain of GDP-bound NRAS wild-type protein (P01111 whole entry): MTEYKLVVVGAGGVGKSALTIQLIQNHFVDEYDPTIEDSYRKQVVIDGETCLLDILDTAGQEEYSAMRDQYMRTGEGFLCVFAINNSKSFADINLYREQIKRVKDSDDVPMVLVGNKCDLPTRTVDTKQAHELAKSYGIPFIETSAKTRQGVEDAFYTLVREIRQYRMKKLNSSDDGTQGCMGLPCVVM
How it was run: (§1)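 Compound binding is evaluated by SPR single-cycle kinetics, with concentrations added intermittently from low to high for 75 s each. Target surfaces carry GDP-loaded biotinylated Avi-RAS at about 100–300 RU, regenerated after each cycle; temperature 30°C. A 1:1 binding model gives KD.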

[2] = system: human lung cancer strain NCI-H441; assay type: cell-based
How it was run: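 Proliferation was scored by […] measured after the reagent was added to cultures kept at 37°C in 5% carbon dioxide.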

[3] = target: HRAS wild-type protein (Homo sapiens, UniProt P01112); test: Binding to HRAS by surface plasmon resonance (SPR), KD and KD ratio to KRAS
Chain of HRAS wild-type protein (P01112 whole entry): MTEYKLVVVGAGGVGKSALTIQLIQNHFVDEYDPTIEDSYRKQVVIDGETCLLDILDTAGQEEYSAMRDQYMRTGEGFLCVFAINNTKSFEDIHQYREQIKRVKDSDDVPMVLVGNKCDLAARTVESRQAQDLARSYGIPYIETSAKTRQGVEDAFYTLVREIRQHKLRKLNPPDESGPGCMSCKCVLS
How it was run: as §1

[4] = target: GDP-bound KRAS wild-type protein (Homo sapiens, UniProt P01116); test: Binding to KRAS by surface plasmon resonance (SPR), dissociation constant KD
Chain of GDP-bound KRAS wild-type protein (P01116 1-188 isoform P01116-2): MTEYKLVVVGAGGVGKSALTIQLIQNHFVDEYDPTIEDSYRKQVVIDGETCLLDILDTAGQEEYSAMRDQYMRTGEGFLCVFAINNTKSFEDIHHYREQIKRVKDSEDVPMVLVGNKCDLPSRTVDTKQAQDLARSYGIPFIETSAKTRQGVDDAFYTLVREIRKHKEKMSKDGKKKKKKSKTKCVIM
How it was run: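 GDP-loaded biotinylated Avi-tag RAS proteins (E. coli-expressed) captured on a Biotin CAPture chip at ~100–300 RU; single-cycle kinetics at 30°C, 100 µL/min, 75 s injections of rising compound concentrations. HBS pH 7.4 running buffer with 1 mM DTT, 10 mM MgCl2, 10 µM GDP, 4% DMSO. KD from 1:1 binding fit.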

[5] = ratio of KD for GDP-bound NRAS wild-type protein to KD for KRAS
[6] = ratio of KD for HRAS wild-type protein to KD for KRAS

Structure (SMILES) | IC50 [2] | Kd ([4]; 1:1 binding model) | Kd ([4]; Single Cycle Kinetics, 1:1 binding model) | Kd ([4]; Single Cycle Kinetics) | NRAS /KRAS [1, 5] | HRAS /KRAS [3, 6] | NRAS /KRAS ([1]; ratio of KD value for GDP-bound NRAS wild-type protein to KD value for KRAS (SPR)) | HRAS /KRAS ([3]; ratio of KD value for HRAS wild-type protein to KD value for KRAS (SPR))
CCCN1C(=O)[C@@H]2CCN2C(=O)[C@H]2N(CC2(C)C)C(=O)[C@H]([C@@H](C)CC)NC(=O)[C@H](CC(C)C)N(C)C(=O)C[C@@H](C(=O)N2CCOCC2)N(C)C(=O)[C@H](C2CCCC2)N(C)C(=O)C2(CCCC2)NC(=O)[C@@H]2CCCN2C(=O)[C@H](CCc2ccc(C(F)(F)F)c(Cl)c2)NC(=O)CN(C)C(=O)[C@@H]1Cc1ccc(C(F)(F)F)cc1 [PP0277] ([NMeL]I[X9][Aze][NPrPhe(4-CF3)][Sar][hPhe(3-Cl-4-CF3)]P[Ac5c][NMeGly(cPent)][NMeD]-Morpholide; lactam N-11) | 6.7 nM | 0.53 nM | – | – | C (A compound having a KD ratio of 0.1 or more and less than 3 is denoted as C) | C (A compound having a KD ratio of 0.1 or more and less than 3 is denoted as C) | – | –
CCO[C@@H]1C[C@H]2C(=O)NC3(CC(C)(C)C3)C(=O)N(C)[C@@H](C3CCCC3)C(=O)N(C)[C@H](C(=O)N(C)CC)CC(=O)N(C)[C@@H](CC(C)C)C(=O)N[C@@H]([C@@H](C)CC)C(=O)N(C)CC(=O)N(C)[C@H]3C/C=C\CCN(C3=O)[C@@H](Cc3ccc(C(F)F)cc3)C(=O)N(C)CC(=O)N[C@@H](CCc3ccc(CC)c(F)c3)C(=O)N2C1 [PP3157] | 88.5 nM | 2.1 nM | – | – | A (a compound having 10 or more and less than 20 is denoted as A) | A (a compound having 10 or more and less than 20 is denoted as A) | – | –
CCCN1C(=O)CN(C)C(=O)[C@@H]2CCN2C(=O)[C@H]([C@@H](C)CC)NC(=O)[C@H](CC(C)C)N(C)C(=O)C[C@@H](C(=O)N2CCOCC2)N(C)C(=O)[C@H](C2CCCC2)N(C)C(=O)C2(CCCC2)NC(=O)[C@@H]2CC3(CC3)CN2C(=O)[C@H](CCc2ccc(C(F)(F)F)c(Cl)c2)NC(=O)CN(C)C(=O)[C@@H]1Cc1ccc(C(F)(F)F)cc1 [PP0308] ([NMeL]I[Aze][Sar][NPrPhe(4-CF3)][Sar][hPhe(3-Cl-4-CF3)][Pro(4-spirocPr)][Ac5c][NMeGly(cPent)][NMeD]-Morpholide; lactam N-11) | 56 nM | 1.1 nM | – | – | B (a compound having 3 or more and less than 10 is denoted as B) | B (a compound having 3 or more and less than 10 is denoted as B) | – | –
CCO[C@@H]1C[C@H]2C(=O)NC3(CCC3)C(=O)N(C)[C@@H](C3CCCC3)C(=O)N(C)[C@H](C(=O)N(C)C)CC(=O)N(C)[C@@H](Cc3ccccc3C)C(=O)N[C@@H]([C@@H](C)CC)C(=O)N(C)CC(=O)N(C)[C@H]3CCCCCN(C3=O)[C@@H](Cc3ccc(C(F)(F)F)cc3)C(=O)N(C)CC(=O)N[C@@H](CCc3cc(F)c(C(F)(F)F)c(F)c3)C(=O)N2C1 [PP0941] | 63.9 nM | – | – | 1.2 nM | B (a compound having 3 or more and less than 10 is denoted as B) | B (a compound having 3 or more and less than 10 is denoted as B) | – | –
CCO[C@@H]1C[C@H]2C(=O)NC3(CC(C)(C)C3)C(=O)N(C)[C@@H](C3CCCC3)C(=O)N(C)[C@H](C(=O)N(C)C)CC(=O)N(C)[C@@H]([C@H](C)OC)C(=O)N[C@@H]([C@@H](C)CC)C(=O)N3CCC[C@H]3C(=O)N(C)[C@H]3C/C=C\CCN(C3=O)[C@@H](Cc3ccc(C(F)(F)F)cc3)C(=O)N(C)CC(=O)N[C@@H](CCc3ccc(C(F)(F)F)c(Cl)c3)C(=O)N2C1 [PP3183] | 63.6 nM | 1.2 nM | – | – | B (a compound having 3 or more and less than 10 is denoted as B) | B (a compound having 3 or more and less than 10 is denoted as B) | – | –

Second part, led by results:

IC50 [2] | Kd ([4]; 1:1 binding model) | Kd ([4]; Single Cycle Kinetics, 1:1 binding model) | Kd ([4]; Single Cycle Kinetics) | Structure (SMILES) | NRAS /KRAS [1, 5] | HRAS /KRAS [3, 6] | NRAS /KRAS ([1]; ratio of KD value for GDP-bound NRAS wild-type protein to KD value for KRAS (SPR)) | HRAS /KRAS ([3]; ratio of KD value for HRAS wild-type protein to KD value for KRAS (SPR))
8.7 nM | – | 0.06 nM | – | CCC[C@H]1C(=O)N[C@@H]([C@@H](C)CC)C(=O)N(C)CC(=O)N(C)[C@H]2C/C=C\CCN(C2=O)[C@@H](Cc2ccc(C)cc2)C(=O)N(C)CC(=O)N[C@@H](CCc2cc(F)c(C(F)(F)F)c(F)c2)C(=O)N2CCC[C@H]2C(=O)N(C)C2(CCC2)C(=O)N(C)[C@@H](C2CCCC2)C(=O)N(C)[C@H](C(=O)N(C)C)CC(=O)N1C [PP1794] | – | – | A (a compound having 10 or more and less than 20 is denoted as A) | B (a compound having 3 or more and less than 10 is denoted as B)
24.8 nM | – | – | 0.16 nM | CCO[C@@H]1C[C@H]2C(=O)NC3(CCC3)C(=O)N(C)[C@@H](C3CCCC3)C(=O)N(C)[C@H](C(=O)N(C)C)CC(=O)N(C)[C@@H](CC)C(=O)N[C@@H]([C@@H](C)CC)C(=O)N(C)CC(=O)N(C)[C@H]3CCCCCN(C3=O)[C@@H](Cc3ccc(F)c(F)c3)C(=O)N(C)CC(=O)N[C@@H](CCc3cc(F)c(C(F)(F)F)c(F)c3)C(=O)N2C1 [PP0907] | B (a compound having 3 or more and less than 10 is denoted as B) | B (a compound having 3 or more and less than 10 is denoted as B) | – | –
